Active and inactive are the calls of the source.
Tests used:
[1] = Displacement of [3H]-DTG from sigma-2 receptor in rat liver homogenates in presence of (+)-pentazocine; assay type: tissue-based
RPMI-8226 [2] = assay: Induction of apoptosis in human RPMI8226 cells assessed as caspase-9 activation at 23 uM by flow cytometric analysis in presence of […]; assay type: functional, cell-based; conditions: TDE = time-dependent effect
RPMI-8226 [3] = assay: Induction of apoptosis in human RPMI8226 cells assessed as caspase-8 activation at 23 uM by flow cytometric analysis in presence of FITC-IETD-FMK; assay type: functional, cell-based; conditions: TDE = time-dependent effect
RPMI-8226 [4] = assay: Induction of apoptosis in human RPMI8226 cells assessed as caspase-3 activation at 23 uM by flow cytometric analysis in presence of […]; assay type: functional, cell-based; conditions: TDE = time-dependent effect
RPMI-8226 [5] = assay: Induction of apoptosis in human RPMI8226 cells assessed as chromatin condensation at 23 uM after 24 to 48 hrs by DAPI staining-based fluorescence microscopic analysis; assay type: functional, cell-based
RPMI-8226 [6] = assay: Induction of apoptosis in human RPMI8226 cells assessed as increase in apoptotic cells at 23 uM after 24 to 48 hrs by annexin V-FITC/propidium iodide staining-based flow cytometric analysis; assay type: functional, cell-based
RPMI-8226 [7] = assay: Induction of apoptosis in human RPMI8226 cells at 23 uM after 6 hrs by annexin V-FITC/propidium iodide staining-based flow cytometric analysis; assay type: functional, cell-based
HL-60 = assay: Cytotoxicity against human HL60 cells assessed as cell viability at 20 uM after 72 hrs by MTT assay; assay type: functional, cell-based
RPMI-8226 [8] = assay: Cytotoxicity against human RPMI8226 cells assessed as cell viability after 72 hrs by MTT assay; assay type: functional, cell-based
RPMI-8226 [9] = assay: Selectivity ratio of Ki for sigma-2 receptor in human RT4 cell homogenates to Ki for sigma-1 receptor in human RPMI8226 cells; assay type: cell-based
[10] = Selectivity ratio of Ki for sigma-2 receptor in rat liver homogenates to Ki for sigma-1 receptor in guinea pig brain homogenates; assay type: tissue-based
[11] = Displacement of [3H]-DTG from sigma-2 receptor in human RT4 cell homogenates in presence of (+)-pentazocine; assay type: tissue-based; conditions: rt-4
[12] = molecular target: Sigma non-opioid intracellular receptor 1 (Homo sapiens, UniProt Q99720); assay: Displacement of [3H]-(+)-pentazocine from sigma-1 receptor in human RPMI8226 cells; assay type: cell-based, RPMI-8226
Chain of Sigma non-opioid intracellular receptor 1 (Homo sapiens, UniProt Q99720) (Q99720 whole entry): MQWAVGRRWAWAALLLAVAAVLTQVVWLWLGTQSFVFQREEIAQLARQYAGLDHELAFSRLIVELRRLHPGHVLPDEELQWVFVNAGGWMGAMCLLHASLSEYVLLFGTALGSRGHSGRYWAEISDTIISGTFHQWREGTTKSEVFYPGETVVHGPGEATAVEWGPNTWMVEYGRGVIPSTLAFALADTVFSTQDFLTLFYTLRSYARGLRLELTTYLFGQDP

[13] = molecular target: Sigma non-opioid intracellular receptor 1 (Cavia porcellus, UniProt Q60492); assay: Displacement of [3H]-(+)-pentazocine from sigma-1 receptor in guinea pig brain homogenates; assay type: tissue-based
Chain of Sigma non-opioid intracellular receptor 1 (Cavia porcellus, UniProt Q60492) (Q60492 whole entry): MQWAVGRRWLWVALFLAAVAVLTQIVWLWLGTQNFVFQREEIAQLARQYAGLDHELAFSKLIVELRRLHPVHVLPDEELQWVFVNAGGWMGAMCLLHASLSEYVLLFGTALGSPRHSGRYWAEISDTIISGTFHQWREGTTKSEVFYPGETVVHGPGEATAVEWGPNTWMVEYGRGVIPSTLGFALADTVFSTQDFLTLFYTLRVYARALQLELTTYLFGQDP

RPMI-8226 [14] = assay: Induction of apoptosis in human RPMI8226 cells assessed as early apoptotic cells at 23 uM after 48 hrs by annexin V-FITC/propidium iodide staining-based flow cytometric analysis in presence of wortmannin; assay type: functional, cell-based
RPMI-8226 [15] = assay: Induction of apoptosis in human RPMI8226 cells assessed as early apoptotic cells at 23 uM after 48 hrs by annexin V-FITC/propidium iodide staining-based flow cytometric analysis; assay type: functional, cell-based
RPMI-8226 [16] = assay: Induction of autophagy in human RPMI8226 cells assessed as p62 protein expression at 23 uM after 48 hrs by Western blotting analysis in presence of wortmannin; assay type: functional, cell-based
RPMI-8226 [17] = assay: Induction of autophagy in human RPMI8226 cells assessed as p62 protein expression at 23 uM after 48 hrs by Western blotting analysis in presence of 3-methyladenine; assay type: functional, cell-based
RPMI-8226 [18] = assay: Induction of autophagy in human RPMI8226 cells assessed as […] protein expression at 23 uM after 48 hrs by Western blotting analysis in presence of wortmannin; assay type: functional, cell-based
RPMI-8226 [19] = assay: Induction of autophagy in human RPMI8226 cells assessed as […] protein expression at 23 uM after 48 hrs by Western blotting analysis in presence of 3-methyladenine; assay type: functional, cell-based
RPMI-8226 [20] = assay: Induction of autophagy in human RPMI8226 cells assessed as p62 protein level at 23 uM after 6 to 96 hrs by Western blotting analysis in presence of alpha-tocopherol; assay type: functional, cell-based
RPMI-8226 [21] = assay: Induction of autophagy in human RPMI8226 cells assessed as […] protein level at 23 uM after 6 to 96 hrs by Western blotting analysis in presence of alpha-tocopherol; assay type: functional, cell-based
RPMI-8226 [22] = assay: Induction of autophagy in human RPMI8226 cells assessed as p62 protein expression at 23 uM after 6 to 96 hrs by Western blotting analysis; assay type: functional, cell-based
RPMI-8226 [23] = assay: Induction of autophagy in human RPMI8226 cells assessed as […] at 23 uM by Western blotting analysis; assay type: functional, cell-based; conditions: TDE = time-dependent effect
RPMI-8226 [24] = assay: Induction of apoptosis in human RPMI8226 cells assessed as early/late apoptotic cells at 23 uM after 48 hrs by annexin V/propidium iodide staining-based flow cytometric analysis in presence of alpha-tocopherol; assay type: functional, cell-based
RPMI-8226 [25] = assay: Induction of apoptosis in human RPMI8226 cells assessed as early apoptotic cells at 23 uM after 24 to 48 hrs by annexin V/propidium iodide staining-based flow cytometric analysis in presence of alpha-tocopherol; assay type: functional, cell-based
RPMI-8226 [26] = assay: Induction of apoptosis in human RPMI8226 cells assessed as decrease in mitochondrial membrane potential at 23 uM by JC-1 staining-based flow cytometric analysis; assay type: functional, cell-based; conditions: TDE = time-dependent effect
RPMI-8226 [27] = assay: Induction of reactive oxygen species generation in human RPMI8226 cells at 23 uM after 0.5 to 24 hrs by DCFDA dye-based flow cytometric analysis; assay type: functional, cell-based
RPMI-8226 [28] = assay: Induction of lipid peroxidation in human RPMI8226 cells at 23 uM after 5 to 24 hrs by flow cytometric analysis in presence of alpha-tocopherol; assay type: functional, cell-based
RPMI-8226 [29] = assay: Induction of lipid peroxidation in human RPMI8226 cells at 23 uM after 5 to 24 hrs by flow cytometric analysis; assay type: functional, cell-based

COc1ccc(CN2CCN(Cc3ccccc3)CC2)cc1
161 nM: Ki [1]

OCC[C@@H]1CN(CC2CCCCC2)CCN1Cc1ccc(-c2ccccc2)cc1
38 nM: Ki [1]
7.8 nM: Ki [13]
inactive: Activity (RPMI-8226 [7]) | Activity (HL-60) | Activity (RPMI-8226 [16]) | Activity (RPMI-8226 [17]) | Activity (RPMI-8226 [20]) | Activity (RPMI-8226 [21]) | Activity (RPMI-8226 [22]) | Activity (RPMI-8226 [24]) | Activity (RPMI-8226 [25]) | Activity (RPMI-8226 [27]) | Activity (RPMI-8226 [28])
4.5: Ratio Ki [10]
29 nM: Ki [12]
13000 nM: IC50 (RPMI-8226 [8]; RPMI-8226, 72 h)
1.3: Ratio Ki (RPMI-8226 [9])
active: Activity (RPMI-8226 [2]) tde | Activity (RPMI-8226 [3]) tde | Activity (RPMI-8226 [4]) tde | Activity (RPMI-8226 [5]) | Activity (RPMI-8226 [6]) | Activity (RPMI-8226 [8]) Dose-dependent effect | Activity (RPMI-8226 [14]) | Activity (RPMI-8226 [15]) | Activity (RPMI-8226 [18]) | Activity (RPMI-8226 [19]) | Activity (RPMI-8226 [23]) tde | Activity (RPMI-8226 [26]) tde | Activity (RPMI-8226 [29])
39 nM: Ki [11]
